The results in this text go back to paper PMC12387680, “Mohangic Acid H and Mohangiol: New p-Aminoacetophenone Derivatives from a Mudflat-Derived Streptomyces sp” (Marine Drugs, 2025).

Where two headings read alike, the source gives them in different places.

For one assay, the target named is T1, isocitrate lyase (ICL) (Candida albicans, UniProt Q9P8Q7).
T1 construct: gene ICL1; recombinant ICL
In words: biochemical.

A further assay relates to T2, E. coli.
T2 construct: ATCC 25922
In words: microbe, parasite or virus in culture. Further details: broth microdilution antibacterial MIC, growth inhibition. Particulars: Escherichia coli, 24 h. As for the experimental part: (§1) Three species of Gram-positive bacteria (Staphylococcus aureus ATCC 25923, Enterococcus faecalis ATCC 19433, and Enterococcus faecium ATCC 19434) and three species of Gram-negative bacteria (Klebsiella pneumoniae ATCC 10031, Salmonella enterica ATCC 14028, and Escherichia coli ATCC 25922) as human pathogens were selected as test strains and prepared for the antibacterial activity assays. The test bacterial strains were cultured overnight in Mueller–Hinton broth (MHB) at 37 °C for human pathogens and in tryptic soy broth (TSB) at 28 °C for B. thuringiensis. The grown strains were harvested by using a centrifuge and washed twice with sterilized water. Ampicillin and tetracycline were used as positive controls, and dimethyl sulfoxide (DMSO) was used as a negative control. Each compound, including 1 and 2, was dissolved in DMSO and diluted with MHB or TSB to prepare serial two-fold dilutions (from 128 µg/mL to 0.015 µg/mL). For the antibacterial activity assay, 10 µL of suspensions containing 1 × 10^6 colony forming units (CFU)/mL of the test bacteria and 190 µL of MHB or TSB, which included the positive control compounds or test compounds, were added into each well of a 96-well plate (final concentration of test bacteria was 5 × 10^4 CFU/mL). Then, the plate was incubated at 37 °C or 28 °C for 24 h. […] The biological activities of mohangic acid H (1) and mohangiol (2) were evaluated in multiple ways. 1 and 2 were evaluated for inhibitory activities against pathogenic bacteria (Staphylococcus aureus ATCC 25923, Enterococcus faecalis ATCC 19433, Enterococcus faecium ATCC 19434, Salmonella enterica ATCC 14028, Escherichia coli ATCC 25922, Klebsiella pneumoniae ATCC 10031) and fungi (Candida albicans ATCC 10231, Aspergillus fumigatus HIC 6094, Trichophyton rubrum NBRC 9185, Trichophyton mentagrophytes IFM 40996) in broth microdilution MIC assays.

The next assay has as its system T3, E. faecalis.
T3 construct: ATCC 19433
In words: microbe, parasite or virus in culture. As to conditions: Enterococcus faecalis, 24 h. Further details: broth microdilution antibacterial MIC, growth inhibition. As for the experimental part:
as §1

For a further assay, the system named is T4, E. faecium.
T4 construct: ATCC 19434
In words: microbe, parasite or virus in culture. Particulars: Enterococcus faecium, 24 h. Also on record: broth microdilution antibacterial MIC, growth inhibition. How it is done:
as §1

The next assay concerns T5, K. pneumonia.
T5 construct: ATCC 10031
Description: microbe, parasite or virus in culture. Further details: broth microdilution antibacterial MIC, growth inhibition. Particulars: Klebsiella pneumoniae, 24 h. As for the experimental part:
as §1

A further assay deals with T6, S. aureus.
T6 construct: ATCC 25923
In words: microbe, parasite or virus in culture. Also on record: broth microdilution antibacterial MIC, growth inhibition. As to conditions: Staphylococcus aureus, 24 h. As for the experimental part:
as §1

For a further assay, the system named is T7, S. enterica.
T7 construct: ATCC 14028
In words: microbe, parasite or virus in culture. Particulars: Salmonella enterica, 24 h. Also on record: broth microdilution antibacterial MIC, growth inhibition. How it is done:
as §1

The subject of the next assay is T8, A. fumigatus.
T8 construct: HIC 6094
In words: microbe, parasite or virus in culture. Particulars: Aspergillus fumigatus, 48 h. Further details: broth microdilution antifungal MIC in RPMI 1640, growth inhibition. How it is done: (§2) Potato dextrose agar (PDA) was used to cultivate Candida albicans ATCC 10231. After incubation for 48 h at 28 °C, the yeast cells were harvested by centrifugation and washed twice with sterile distilled water. Aspergillus fumigatus HIC 6094, Trichophyton rubrum NBRC 9185, and Trichophyton mentagrophytes IFM 40,996 were also plated on PDA and incubated for 2 weeks at 28 °C. Spores were harvested and washed twice with sterile distilled water. Stock solutions of 1 and 2 were prepared in DMSO. Each stock solution was diluted with RPMI 1640 broth (Difco, Livonia, MI, USA) to give serial twofold dilutions in the range of 0.06–128 µg/mL. The final DMSO concentration was maintained at 1% by adding DMSO to the broth. Aliquots (10 µL) of the RPMI 1640 broth containing approximately 10^4 cells/mL were mixed with the test compound solutions in each well of a 96-well plate. The plates were incubated for 24 h (for C. albicans), 48 h (for A. fumigatus), and 96 h (for T. rubrum and T. mentagrophytes) at 37 °C. A culture with DMSO (1%) was used as a solvent control, and a culture supplemented with amphotericin B was used as a positive control. The biological activities of mohangic acid H (1) and mohangiol (2) were evaluated in multiple ways. 1 and 2 were evaluated for inhibitory activities against pathogenic bacteria (Staphylococcus aureus ATCC 25923, Enterococcus faecalis ATCC 19433, Enterococcus faecium ATCC 19434, Salmonella enterica ATCC 14028, Escherichia coli ATCC 25922, Klebsiella pneumoniae ATCC 10031) and fungi (Candida albicans ATCC 10231, Aspergillus fumigatus HIC 6094, Trichophyton rubrum NBRC 9185, Trichophyton mentagrophytes IFM 40996) in broth microdilution MIC assays.

The test system of the next assay is T9, C. albicans.
T9 construct: ATCC 10231
In words: microbe, parasite or virus in culture. Further details: broth microdilution antifungal MIC in RPMI 1640, growth inhibition. As to conditions: Candida albicans, 24 h. How it is done: as §2

For the next assay, the system named is T10, T. mentagrophytes.
T10 construct: IFM 40996
In words: microbe, parasite or virus in culture. Also on record: broth microdilution antifungal MIC in RPMI 1640, growth inhibition. As to conditions: Trichophyton mentagrophytes, 96 h. As for the experimental part: as §2

The test system of another assay is T11, T. rubrum.
T11 construct: NBRC 9185
In words: microbe, parasite or virus in culture. As to conditions: Trichophyton rubrum, 96 h. Also on record: broth microdilution antifungal MIC in RPMI 1640, growth inhibition. How it is done:
as §2

The mark [1] stands for this setting: read-out: IC50 (μg/mL) (converted).

T1 sequence (Q9P8Q7 whole entry): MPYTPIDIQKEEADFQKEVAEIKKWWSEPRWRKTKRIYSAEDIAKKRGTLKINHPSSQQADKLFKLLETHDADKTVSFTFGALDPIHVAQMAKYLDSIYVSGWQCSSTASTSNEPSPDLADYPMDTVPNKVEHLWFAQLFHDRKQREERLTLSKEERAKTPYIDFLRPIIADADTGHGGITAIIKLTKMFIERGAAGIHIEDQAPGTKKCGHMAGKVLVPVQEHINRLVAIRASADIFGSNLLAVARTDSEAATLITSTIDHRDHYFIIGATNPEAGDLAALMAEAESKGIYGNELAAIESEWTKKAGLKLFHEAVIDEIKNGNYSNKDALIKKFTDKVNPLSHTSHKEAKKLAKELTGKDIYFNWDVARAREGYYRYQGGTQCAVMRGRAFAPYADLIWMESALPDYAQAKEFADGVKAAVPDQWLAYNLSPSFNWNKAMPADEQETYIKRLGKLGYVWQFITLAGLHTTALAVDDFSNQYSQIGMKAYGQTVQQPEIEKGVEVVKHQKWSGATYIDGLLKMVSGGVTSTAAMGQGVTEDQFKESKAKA

With `O=C(O)CC[N+](=O)[O-]` [3-nitropropionate, reference compound], the IC50 at isocitrate lyase (ICL) was 126 µM.

Take `CC(=O)Nc1ccc(C(=O)C[C@@H](O)[C@H](C)C[C@@H](C)[C@H](O)[C@H](C)/C=C/C=C/C(=O)O)cc1` [compound 1, Mohangic acid H]: the IC50 on isocitrate lyase (ICL) (setting [1]) was 49.5 µM. Also, the MIC with E. coli, in the assay on E. faecalis, in the assay on E. faecium, with K. pneumonia, in the assay with S. aureus and in the assay with S. enterica was more than 128 µM in each case. The MIC against A. fumigatus, in the assay with C. albicans, against T. mentagrophytes and in the assay with T. rubrum was more than 128 µM in each case.

Consider `C[C@H](O)CC/C=C/C=C/[C@@H](C)[C@@H](O)[C@H](C)C[C@@H](C)[C@H](O)CC(=O)c1ccc(N)cc1` [compound 2, Mohangiol], for which the IC50 at isocitrate lyase (ICL) (setting [1]) was 50.6 µM. Besides, the MIC against E. coli, with E. faecalis, with E. faecium, in the assay on K. pneumonia, against S. aureus and against S. enterica was more than 128 µM each time. Besides, the MIC in the assay with A. fumigatus, against C. albicans, in the assay with T. mentagrophytes and against T. rubrum was more than 128 µM each time.
